Source: patent US5843941A, “Ras farnesyl transferase inhibitors” (Genentech, Inc., priority 1994, dated 1998)
Like-named read-outs stand apart in the source and are kept apart here.

Target: CAAX farnesyltransferase (Rattus norvegicus, UniProt Q02293+Q04631)
Test: In vitro inhibition of CAAX farnesyltransferase
Type: biochemical
Set-up: purified to homogeneity from rat brain homogenates; from tissue; host or cells: rat brain; alternatively recombinant enzyme from a baculovirus expression system
Conditions: Table D
Experimental: All compounds were tested for in vitro inhibition of CAAX protein farnesyltransferase. […] Alternatively, recombinant CAAX protein farnesyltransferase was also used in this assay. […] Seventy-two hrs after infection, the cells were harvested and disrupted and the enzyme isolated by chromatography on Q-Sepharose.
After incubation for 30 min at 37° C., the amount of [3H]famesyl group transferred to p21H-ras was measured by precipitation with SDS/trichloroacetic acid, filtration onto nitrocellulose, and scintillation counting.
Structures of the compounds tested are reproduced below. Compound numbers also refer to example numbers above.

[1] = diastereomer A, read-out: EC50 (μM) "A"
[2] = diastereomer B, read-out: EC50 (μM) "B"

Chain of CAAX farnesyltransferase (Q02293 whole entry, one chain of several): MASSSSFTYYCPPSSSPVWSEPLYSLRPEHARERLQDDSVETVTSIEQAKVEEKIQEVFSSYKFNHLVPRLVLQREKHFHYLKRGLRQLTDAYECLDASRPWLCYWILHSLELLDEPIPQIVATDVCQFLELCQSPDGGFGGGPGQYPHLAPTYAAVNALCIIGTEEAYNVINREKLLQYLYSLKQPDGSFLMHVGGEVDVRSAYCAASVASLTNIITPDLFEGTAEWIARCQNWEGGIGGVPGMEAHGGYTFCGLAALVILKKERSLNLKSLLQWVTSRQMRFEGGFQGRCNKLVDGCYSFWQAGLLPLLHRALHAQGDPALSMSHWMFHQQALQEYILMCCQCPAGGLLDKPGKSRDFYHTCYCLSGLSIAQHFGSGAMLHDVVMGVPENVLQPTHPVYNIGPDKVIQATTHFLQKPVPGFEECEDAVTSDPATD

Row | SMILES | EC50 [1] [µM] | EC50 [2] [µM]
1 | C[C@@H](O)[C@H](NC(=O)CN1C(=O)C(N(C)C(=O)[C@@H](N)CS)N=C(c2ccccc2)c2ccccc21)C(=O)O (stereo partly drawn) [compound 51, N-[[3-[(2-amino-3-mercapto-1-oxopropyl)methylamino]-2,3-dihydro-2-oxo-5-phenyl-1H-1,4-benzodiazepin-1-yl]acetyl]-L-threonine] | > 3 | 0.0017
2 | CN(C(=O)[C@@H](N)CS)C1N=C(c2ccccc2)c2ccccc2N(CC(=O)N[C@@H](CCC(N)=O)C(=O)O)C1=O (stereo partly drawn) [compound 52, N-[[3-[(2-amino-3-mercapto-1-oxopropyl)methylamino]-2,3-dihydro-2-oxo-5-phenyl-1H-1,4-benzodiazepin-1-yl]acetyl]-L-glutamine] | > 3 | 0.0018
3 | CN(C(=O)[C@@H](N)CS)C1N=C(c2ccccc2)c2ccccc2N(CC(=O)NCC(=O)O)C1=O (stereo partly shown) [compound 53, N-[[3-[(2-amino-3-mercapto-1-oxopropyl)methylamino]-2,3-dihydro-2-oxo-5-phenyl-1H-1,4-benzodiazepin-1-yl]acetyl]-glycine] | > 3 | 0.0004
4 | CN(C(=O)[C@@H](N)CS)C1N=C(c2ccccc2)c2ccccc2N(CC(=O)N[C@@H](Cc2ccc(O)cc2)C(=O)O)C1=O (stereo partly drawn) [compound 54, N-[[3-[(2-amino-3-mercapto-1-oxopropyl)methylamino]-2,3-dihydro-2-oxo-5-phenyl-1H-1,4-benzodiazepin-1-yl]acetyl]-L-tyrosine] | 1.5 | 0.004
5 | CN(C(=O)[C@@H](N)CS)C1N=C(c2ccccc2)c2ccccc2N(CC(=O)N[C@@H](CC2CCCCC2)C(=O)O)C1=O (stereo partly drawn) [compound 57, N-[[3-[(2-amino-3-mercapto-1-oxopropyl)methylamino]-2,3-dihydro-2-oxo-5-phenyl-1H-1,4-benzodiazepin-1-yl]acetyl]-(β-cyclohexyl)-L-alanine] | 2 | 0.0015
6 | CN(C(=O)[C@@H](N)CS)C1N=C(c2ccccc2)c2ccccc2N(CC(=O)N[C@H](C(=O)O)C2CCCCC2)C1=O (stereo partly drawn) [compound 58, N-[[3-[(2-amino-3-mercapto-1-oxopropyl)methylamino]-2,3-dihydro-2-oxo-5-phenyl-1H-1,4-benzodiazepin-1-yl]acetyl]-(α-cyclohexyl)-glycine] | 1.1 | 0.0006
7 | CN(C(=O)[C@@H](N)CS)C1N=C(c2ccccc2)c2ccccc2N(CC(=O)N[C@@H](CCc2ccccc2)C(=O)O)C1=O (stereo partly drawn) [compound 59, N-[[3-[-(2-amino-3-mercapto-1-oxopropyl)methylamino]-2,3-dihydro-2-oxo-5-phenyl-1H-1,4-benzodiazepin-1-yl]acetyl]-L-homo-phenylalanine] | 1.1 | 0.0012
8 | CN(C(=O)[C@@H](N)CS)C1N=C(c2ccccc2)c2ccccc2N(CC(=O)N[C@@H](Cc2ccc(F)cc2)C(=O)O)C1=O (stereo partly shown) [compound 60] | 0.94 | 0.0005
9 | CN(C(=O)[C@@H](N)CS)C1N=C(c2ccccc2)c2ccccc2N(CC(=O)N[C@@H](Cc2ccc(-c3ccccc3)cc2)C(=O)O)C1=O (stereo partly drawn) [compound 61, N-[[3-[(2-amino-3-mercapto-1-oxopropyl)methylamino]-2,3-dihydro-2-oxo-5-phenyl-1H-1,4-benzodiazepin-1-yl]acetyl]-(β-biphenyl)-L-alanine] | 1.7 | 0.0035
10 | CCCC[C@H](NC(=O)CN1C(=O)C(N(C)C(=O)[C@@H](N)CS)N=C(c2ccccc2)c2ccccc21)C(=O)O (stereo partly drawn) [compound 62, N-[[3-[(2-amino-3-mercapto-1-oxopropyl)methylamino]-2,3-dihydro-2-oxo-5-phenyl-1H-1,4benzodiazepin-1-yl]acetyl]-L-norleucine] | 0.72 | 0.0005
11 | CSCC[C@@H](C(=O)O)N(C)C(=O)CN1C(=O)C(NC(=O)[C@@H](N)CS)N=C(c2ccccc2)c2ccccc21 (stereo partly shown) [compound 63] | > 10 | 2
12 | CSCC[C@@H](C(=O)O)N(C)C(=O)CN1C(=O)C(N(C)C(=O)[C@@H](N)CS)N=C(c2ccccc2)c2ccccc21 (stereo partly drawn) [compound 64, N-[[3-[(2-amino-3-mercapto-1-oxopropyl)methylamino]-2,3-dihydro-2-oxo-5-phenyl-1H-1,4-benzodiazepin-1-yl]acetyl]-(N-methyl)-L-methionine] | 0.26 | 0.002
13 | CN(CC(=O)O)C(=O)CN1C(=O)C(N(C)C(=O)[C@@H](N)CS)N=C(c2ccccc2)c2ccccc21 (stereo partly shown) [compound 65, N-[[3-[(2-amino-3-mercapto-1-oxopropyl)methylamino]-2,3-dihydro-2-oxo-5-phenyl-1H-1,4-benzodiazepin-1-yl]acetyl]-(N-methyl)-glycine] | > 3 | 0.0038
14 | CN(C(=O)[C@@H](N)CS)C1N=C(c2ccccc2)c2ccccc2N(CC(=O)N(CC(=O)O)Cc2ccccc2)C1=O (stereo partly shown) [compound 66] | 2.4 | 0.0006
15 | CSCC[C@H](NC(=O)CN1C(=O)C(N(C)C(=O)[C@@H](N)CS)N=C(c2ccccc2)c2cc(Cl)ccc21)C(=O)O (stereo partly drawn) [compound 67, N-[[3-[(2-amino-3-mercapto-1-oxopropyl)methylamino]-2,3-dihydro-2-oxo-5-phenyl-7-chloro-1H-1,4-benzodiazepin-1-yl]acetyl]-L-methionine] | 0.31 | 0.0004
16 | CN(C(=O)[C@@H](N)CS)C1N=C(c2ccccc2)c2cc(Cl)ccc2N(CC(=O)N[C@@H](Cc2ccccc2)C(=O)O)C1=O (stereo partly shown) [compound 68] | 0.14 | 0.0016
17 | CN(C(=O)[C@@H](N)CS)C1N=C(c2ccccc2)c2cc(Cl)ccc2N(CC(=O)N[C@@H](Cc2ccccc2)C(N)=O)C1=O (stereo partly drawn) [compound 69, N-[[3-[(2-amino-3-mercapto-1-oxopropyl)methylamino]-2,3-dihydro-2-oxo-5phenyl-7-chloro-1H-1,4-benzodiazepin-1-yl]acetyl]-L-phenylalanine amide] | 1.5 | 0.0036
18 | CN(C(=O)[C@@H](N)CS)C1N=C(c2ccccc2)c2cc(Cl)ccc2N(CC(=O)N[C@@H](Cc2ccc(F)cc2)C(=O)O)C1=O (stereo partly drawn) [compound 70, N-[[3-[(2-amino-3-mercapto-1-oxopropyl)methylamino]-2,3-dihydro-2-oxo-5-phenyl-7-chloro-1H-1,4-benzodiazepin-1-yl]acetyl]-L-4-fluoro-phenylalanine] | 0.13 | 0.0008
19 | CN(C(=O)[C@@H](N)CS)C1N=C(c2ccccc2)c2cc(Cl)ccc2N(CC(=O)N[C@H](C(=O)O)C2CCCCC2)C1=O (stereo partly drawn) [compound 71, N-[[3-[(2-amino-3-mercapto-1-oxopropyl)methylamino]-2,3-dihydro-2-oxo-5-phenyl-7-chloro-1H-1,4-benzodiazepin-1-yl]acetyl]-L-(α-cyclohexyl)-glycine] | 0.1 | 0.0007
20 | CN(C(=O)[C@@H](N)CS)C1N=C(c2ccccc2)c2cc(Cl)ccc2N(CC(=O)N[C@H](C(N)=O)C2CCCCC2)C1=O (stereo partly drawn) [compound 72, N-[[3-[(2-amino-3-mercapto-1-oxopropyl)methylamino]-2,3-dihydro-2-oxo-5-phenyl-7-chloro-1H-1,4-benzodiazepin-1-yl]acetyl]-L-(α-cyclohexyl)-glycine amide] | 0.6 | 0.0017
